Measurements published in US5536719A, “Benzothiadiazine compound” (Adir et Compagnie, priority 1994, dated 1996).

How the values were obtained:
[1] = test system: AMPA receptor (rat cortex mRNA expressed in Xenopus oocytes); experiment: excitatory currents induced by AMPA in Xenopus oocytes (voltage-clamp); type: cell-based, rat (male Wistar) receptors expressed in Xenopus oocytes; details: for EC2X (concentration which doubles the intensity of the current induced by AMPA alone) / EC5X (concentration which increases five-fold the intensity of the current induced by AMPA alone): Xenopus oocytes, rat cortex mRNA, agonist AMPA (30 mM [sic])
Protocol: Study of the excitatory currents induced by AMPA in Xenopus oocytes mRNAs are prepared from male Wistar rat cerebral cortex by the guanidium thiocyanate/phenol/chloroform method. The poly(A^+) mRNAs are isolated by chromatography on oligo-dT cellulose and injected at an amount of 50 ng per oocyte. The oocytes are left to incubate for 2 to 3 days at 18° C. in order to allow expression of the receptors, and are then stored at 8°-10° C. The electrophysiological recording is performed in a plexiglass® chamber at 20°-24° C. in OR2 medium (J. Exp. Zool., 1973, 184, 321-334) by the "voltage-clamp" method with 2 electrodes, a 3rd electrode placed in the bath serving as reference. All the compounds are applied via the incubation medium and the electric current is measured at the end of the period of application. The AMPA is used at a concentration of […]. The concentration which doubles (EC2X) or which increases five-fold (EC5X) the intensity of the current induced by AMPA alone (50 to 100 nA) is determined for each compound studied.

[2] = test system: AMPA receptors of neuronal cells; details: Journal of Neurochemistry, 1992, 58, 1199-1204; cited from earlier work
[3] = Il Farmaco, Ed. Sc., 1978, 33, 713-720; cited from earlier work
[4] = test system: slice of hippocampus (dentate gyrus EPSP); experiment: excitatory postsynaptic potentials (EPSP) induced by electrical stimulation on a slice of hippocampus; type: cell-based, male Wistar rat; details: compared with reference compounds, racemic mixture and R isomer
Protocol: Study of the synaptic excitatory potentials induced by electrical stimulation on a slice of hippocampus
Transverse slices of hippocampus ([…]) from a male Wistar rat are prepared using a "tissue chopper" and then incubated for 45 minutes in calcium-free medium containing 10 mM Mg^++. They are then stabilized in Krebs adjusted to pH 7.35 and oxygenated with O2 /CO2 (95%/5%) at room temperature.
The slices are submerged at 35° C. and the excitatory postsynaptic potentials (EPSP) are recorded in the dendritic field of the […] of the dentate gyms during stimulation ([…]) every 30 seconds of the perforating route via a tungsten bipolar electrode.
The EPSPs are acquired and analyzed by means of an A-D converter, a TL-1 interface and "pCLAMP" software.
The amplitude and duration of the EPSPs are evaluated on the negative wave relative to the base current.
The compounds are applied for 10 to 20 minutes in the superfusion bath containing MgSO4 (1 mM) in order to block the activation of the NMDA receptors. The concentration increasing the amplitude of the EPSP by 50% (A50) is determined for each compound.

kainate (KA) = experiment: currents induced by kainate (KA) in Xenopus oocytes (selectivity); type: cell-based, rat (male Wistar) receptors expressed in Xenopus oocytes
NMDA = experiment: currents induced by NMDA in Xenopus oocytes (selectivity); type: cell-based, rat (male Wistar) receptors expressed in Xenopus oocytes

With `O=S1(=O)N[C@@H]2CCCN2c2ccccc21` [R isomer] the “EC2X (concentration which doubles the intensity of the current induced by AMPA alone)” value [1] was 300 µM and the “EC5X (concentration which increases five-fold the intensity of the current induced by AMPA alone)” value [1] was over 1000 µM.

For `COc1ccc(C(=O)N2CCCC2=O)cc1` [Aniracetam, reference compound], the “modulation of AMPA receptors of neuronal cells” value [2] is given as “positively modulating the AMPA receptors of neuronal cells”, the “EC2X (concentration which doubles the intensity of the current induced by AMPA alone)” value [1] is given as 1300 µM and the “EC5X (concentration which increases five-fold the intensity of the current induced by AMPA alone)” value [1] is given as 5000 µM.

For `O=S1(=O)NC2CCCN2c2ccccc21` (racemic) [Racemic mixture, 5,5-Dioxo-2,3,3a,4-tetrahydro-1H-pyrrolo[2,1-c]-[1,2,4]benzothiadiazine, reference compound], the “hypotensive and bradycardiac activities” value [3] is given as “having hypotensive and bradycardiac activities”, the “EC2X (concentration which doubles the intensity of the current induced by AMPA alone)” value [1] is given as 60 µM and the “EC5X (concentration which increases five-fold the intensity of the current induced by AMPA alone)” value [1] is given as 160 µM.

With `CC1=NS(=O)(=O)c2cc(Cl)ccc2N1` [Diazoxide, reference compound] the “EC2X (concentration which doubles the intensity of the current induced by AMPA alone)” value [1] was 400 µM and the “EC5X (concentration which increases five-fold the intensity of the current induced by AMPA alone)” value [1] was 1000 µM.

With `O=S1(=O)N[C@H]2CCCN2c2ccccc21` [Example 1, (3aS)-5,5-Dioxo-2,3,3a,4-tetrahydro-1H-pyrrolo[2,1-c][1,2,4]benzothiadiazine] the “increase of the amplitude of the EPSP” value [4] was “increases the amplitude of the EPSP at lower doses than the reference compounds, the racemic mixture or the R isomer”, the “potentiation of the current (KA agonist)” value (kainate (KA)) was “no potentiation of the current is observed” and the “EC2X, KA” value (kainate (KA); selectivity table, agonist kainate (KA)) was over 300 µM. For the same compound, the “EC2X (concentration which doubles the intensity of the current induced by AMPA alone)” value [1] was 35 µM, the “EC5X (concentration which increases five-fold the intensity of the current induced by AMPA alone)” value [1] was 70 µM and the “potentiation of the excitatory effects of AMPA” value ([1]; compared with reference compounds, racemic mixture and R isomer) was “very strongly potentiates the excitatory effects of AMPA”. For the same compound, the “EC2X, AMPA” value ([1]; selectivity table, agonist AMPA) was 35 µM, the “potentiation of the current (NMDA agonist)” value (NMDA) was “no potentiation of the current is observed” and the “EC2X, NMDA” value (NMDA; selectivity table, agonist NMDA) was over 300 µM.
